Laboratory results from the NIST ThermoML archive (doi:10.1016/j.jct.2015.05.004).

Test: xn = mol fraction of the nth substance listed
Conditions: 100 kPa, Liquid; for speed of sound: Frequency=3 MHz, Sing-around technique in a fixed-path interferometer; for mass density: Vibrating tube method

CC(=O)O [acetic acid] + CCCCn1cc[n+](C)c1.N#C[S-]
x2 = 0
Conditions | mass density [kg/m3] | speed of sound [m/s]
293.15 K | 1049.75 | 1152.7
298.15 K | 1044.13 | 1135.7
303.15 K | 1038.48 | 1118.4
308.15 K | 1032.83 | 1101.2
313.15 K | 1027.18 | 1084

CCCCn1cc[n+](C)c1.N#C[S-] [1-butyl-3-methylimidazolium thiocyanate] + CCC(=O)O
Conditions | mass density, 293.15 K [kg/m3] | mass density, 298.15 K [kg/m3] | mass density, 303.15 K [kg/m3] | mass density, 308.15 K [kg/m3] | mass density, 313.15 K [kg/m3] | speed of sound, 293.15 K [m/s] | speed of sound, 298.15 K [m/s] | speed of sound, 303.15 K [m/s] | speed of sound, 308.15 K [m/s] | speed of sound, 313.15 K [m/s]
x1 = 0.0698 | 1015.42 | 1010.77 | 1006.13 | 1001.49 | 996.86 | 1260.2 | 1243 | 1225.7 | 1208.3 | 1191
x1 = 0.1444 | 1031.52 | 1027.32 | 1023.13 | 1018.95 | 1014.78 | 1361.3 | 1345.7 | 1329.8 | 1313.9 | 1298.1
x1 = 0.2223 | 1042.18 | 1038.27 | 1034.37 | 1030.48 | 1026.6 | 1445.8 | 1431.2 | 1416.3 | 1401.5 | 1386.8
x1 = 0.306 | 1049.78 | 1046.09 | 1042.4 | 1038.73 | 1035.07 | 1514.4 | 1500.5 | 1486.3 | 1472.3 | 1458.3
x1 = 0.3989 | 1055.66 | 1052.15 | 1048.65 | 1045.17 | 1041.69 | 1571.4 | 1558.1 | 1544.6 | 1531.1 | 1517.8
x1 = 0.5022 | 1060.19 | 1057.09 | 1053.43 | 1050.09 | 1046.79 | 1619.3 | 1606.6 | 1593.7 | 1580.8 | 1568.1
x1 = 0.6068 | 1064.02 | 1061.09 | 1057.85 | 1054.64 | 1051.44 | 1662 | 1649.6 | 1637 | 1624.6 | 1612.2
x1 = 0.7166 | 1067.2 | 1064.46 | 1061.32 | 1058.2 | 1055.09 | 1700.9 | 1688.8 | 1676.4 | 1664.2 | 1652.1
x1 = 0.8561 | 1070.36 | 1067.84 | 1064.79 | 1061.76 | 1058.74 | 1742.8 | 1730.9 | 1718.9 | 1707 | 1695.1
x1 = 0.9209 | 1071.7 | 1069.3 | 1066.3 | 1063.3 | 1060.33 | 1761.8 | 1750 | 1738.1 | 1726.3 | 1714.6
x1 = 1 | 1072.74 | 1070.34 | 1067.37 | 1064.42 | 1061.47 | 1778.8 | 1767.2 | 1755.4 | 1743.7 | 1732.1

CCCCn1cc[n+](C)c1.N#C[S-] [1-butyl-3-methylimidazolium thiocyanate] + CC(=O)O
Conditions | mass density, 293.15 K [kg/m3] | mass density, 298.15 K [kg/m3] | mass density, 303.15 K [kg/m3] | mass density, 308.15 K [kg/m3] | mass density, 313.15 K [kg/m3] | speed of sound, 293.15 K [m/s] | speed of sound, 298.15 K [m/s] | speed of sound, 303.15 K [m/s] | speed of sound, 308.15 K [m/s] | speed of sound, 313.15 K [m/s]
x1 = 0.058 | 1064.97 | 1060.08 | 1055.2 | 1050.32 | 1045.44 | 1270.5 | 1252.4 | 1235.9 | 1218.7 | 1202
x1 = 0.1206 | 1070.89 | 1066.45 | 1062 | 1057.56 | 1053.12 | 1369.6 | 1353.9 | 1338 | 1322.1 | 1306.4
x1 = 0.1878 | 1072.93 | 1069.2 | 1064.96 | 1060.77 | 1056.64 | 1448.3 | 1433.8 | 1419 | 1404.2 | 1389.4
x1 = 0.2632 | 1073.93 | 1070.07 | 1066.21 | 1062.35 | 1058.51 | 1520 | 1506.3 | 1492.2 | 1478.1 | 1464.2
x1 = 0.3498 | 1073.95 | 1070.59 | 1066.92 | 1063.27 | 1059.63 | 1576.8 | 1563.6 | 1550.1 | 1536.6 | 1523.3
x1 = 0.4503 | 1074.04 | 1070.98 | 1067.53 | 1064.1 | 1060.67 | 1626.5 | 1613.6 | 1600.6 | 1587.6 | 1574.8
x1 = 0.5559 | 1073.89 | 1070.99 | 1067.68 | 1064.39 | 1061.21 | 1667 | 1658.3 | 1641.9 | 1629.3 | 1616.9
x1 = 0.6831 | 1073.66 | 1071.08 | 1067.9 | 1064.74 | 1061.59 | 1707.6 | 1695.4 | 1683.1 | 1670.8 | 1658.6
x1 = 0.8282 | 1073.35 | 1070.87 | 1067.81 | 1064.75 | 1061.71 | 1744.3 | 1732.4 | 1720.3 | 1708.4 | 1696.4
x1 = 0.9042 | 1073.19 | 1070.77 | 1067.74 | 1064.74 | 1061.75 | 1760.7 | 1749 | 1737 | 1725.2 | 1713.4
x1 = 1 | 1072.74 | 1070.34 | 1067.37 | 1064.42 | 1061.47 | 1778.8 | 1767.2 | 1755.4 | 1743.7 | 1732.1

CCC(=O)O [propanoic acid] + CCCCn1cc[n+](C)c1.N#C[S-]
x2 = 0
Conditions | mass density [kg/m3] | speed of sound [m/s]
293.15 K | 993.33 | 1164.7
298.15 K | 987.94 | 1146
303.15 K | 982.54 | 1127.1
308.15 K | 977.14 | 1108.3
313.15 K | 971.75 | 1089.6
